The test relates to Trypanosoma brucei growth inhibition. The test can be described thus: T. brucei growth inhibition (AID 1159557).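 Note: parasites exposed to compound for 48 h before the resazurin readout.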

This note sets out measurements from PubChem BioAssay AID1159557 (GlaxoSmithKline (GSK), 2015).

The source made the active and inactive calls. The rule behind the calls is not given here.

`CCOC(=O)c1noc(N)c1-c1ccccc1`: the IC50 – broadly, the concentration needed to halve the response being measured – was 0.63 µM.
Take `CCn1c(-c2nonc2N)nc2c([C@@H](C)O)ncc(O[C@H](CN)c3ccccc3)c21`: the IC50 is 0.63 µM.
Take `C[C@@H](Oc1cc(-n2cnc3cc(N)ccc32)sc1C(N)=O)c1ccccc1Cl`: the IC50 was 0.25 µM.
For the compound `O=C(NCc1nnc2n1CCCCC2)c1ccc(-c2ccc(F)cc2)o1`, the IC50 is 0.13 µM.
The same measure for `CC1(Oc2cncc(Cl)c2)CCN(Cc2cc3ccccc3[nH]2)C1` (centres undefined): > 40 µM (inactive); for `O=C(C1CCCCC1)N1CCN(c2nnc(-c3ccccc3)c3ccccc23)CC1`: 10 µM.
As to `CNC(=O)C1Cc2ccccc2N1C(=O)Cc1ccc(OC)cc1` (centres undefined), the IC50 is 0.4 µM.
Regarding `COCCn1c(-c2ccccc2)cnc1NCc1ccccc1OC`, the IC50 is 25 µM.
Take `CCOc1ccccc1C(=O)Nc1nnc(-c2ccc3c(c2)OCO3)s1`: the IC50 was > 40 µM (inactive).
Consider `NC(=O)c1ncccc1Nc1nc(NC2CCC(O)CC2)ncc1Br` (centres undefined), for which the IC50 is 0.32 µM.
For `COc1ccc2c(Cl)c(C(=O)N3CCC3)sc2c1Cl`, the IC50 is 20 µM.
With `COc1cc(-c2nc(N3CCOCC3)sc2-c2ccnc(NC3CCOCC3)n2)ccc1Cl`, the IC50 was 16 µM.
Next, `c1ccc(Nc2nc3ccccc3[nH]2)nc1`: 16 µM; `O=C(c1cccc(Cl)c1Cl)N1CCn2c1nc(-c1ccncc1)cc2=O`: 16 µM; `Cc1nc2nc(C)c(Cc3ccc(C(C)C)cc3)c(=O)n2[nH]1`: > 40 µM (inactive).
Regarding `Cn1nc(-c2ccc(NC(=O)Cc3ccccc3Cl)cc2)c2c(N)ncnc21`, the IC50 is 0.4 µM.
Take `Oc1c(-c2n[nH]c(CCc3ccccc3)n2)ncc2cccnc12`: the IC50 was 0.79 µM.
Consider `c1ccc(CCNCc2cncc3nc(-c4cnccn4)n(C4CCCCC4)c23)cc1`, for which the IC50 is 32 µM.
On to `O=C(NCc1ccncc1)c1ccccc1N1CCCN(C(=O)Cc2ccc(F)c(F)c2)CC1`, for which the IC50 was 6.3 µM.
Take `COc1ccc(S(=O)(=O)Nc2ccc(C(=O)Nc3nc(-c4ccccn4)cs3)cc2)cc1`: the IC50 was 0.79 µM.
`O=C(Nc1ccccc1)Nc1nc(-c2ccccn2)cs1`: the IC50 is 1 µM.
Consider `COCc1cc(Nc2ccccc2)nc(-c2ccccn2)n1`, for which the IC50 was > 40 µM (inactive).
Take `Cc1cc(C)c(C#N)c(SCC(=O)c2ccc3c(c2)OCO3)n1`: the IC50 was 20 µM.
For `O=C(NCCc1cccnc1)c1csc(-c2ccccc2)n1`, the IC50 is 25 µM.
Consider `COc1ccc2nc(N(Cc3cccnc3)C(=O)C3CCC3)sc2c1`, for which the IC50 was 20 µM.
For `CS(=O)(=O)c1cccc(CNC(=O)c2cncc(N3CCN(c4ccc(F)cc4)CC3)c2)c1`, the IC50 is 32 µM.
Turning to `O=C(c1cccc(Nc2ncc(-c3ccc4c(c3)OCO4)cn2)c1)N1CCOCC1`, the IC50 is 25 µM.
With `CCN(CC)S(=O)(=O)c1ccc(Cn2nc(C(=O)Nc3ccncn3)c3ccccc32)cc1`, the IC50 is 32 µM.
The same measure for `CCC(=O)Nc1ccccc1C(=O)Nc1ccccn1`: 0.32 µM; for `O=C(NNC(=O)c1ccccn1)c1ccc(-c2ccccc2)cc1`: 0.32 µM.
Consider `N#Cc1cccc(CN2CCC(N(Cc3cccnc3)C(=O)c3cc(F)c(F)cc3F)CC2)c1`, for which the IC50 is > 40 µM (inactive).
For `CC(=O)Nc1cccc(Nc2ncnc3nc[nH]c23)c1`, the IC50 was 0.13 µM.
Take `NC(=O)c1ccc(-c2cccc(OCCN3CCN(C4CCCCC4)CC3)c2)cc1`: the IC50 was 16 µM.
Next, `Cc1cc(C)cc(NS(=O)(=O)c2cc(-c3cc(C)[nH]n3)ccc2C)c1`: 1 µM; `O=C(Cn1cnc2c(-c3ccccc3)csc2c1=O)N1CCCCC1`: 0.79 µM.
As for `NC(=O)c1cc(F)ccc1Nc1nc(NC2CCC(O)CC2)ncc1Cl` (centres undefined), the 50% inhibitory concentration (IC50) is 0.16 µM.
With `CN(C)S(=O)(=O)c1ccc(-c2cnc(N)c(-c3nc4ccc(F)cc4[nH]3)c2)cc1`, the IC50 was 0.4 µM.
Take `CCN(CC)S(=O)(=O)c1ccc(OC)c(NC(=O)c2ccc([N+](=O)[O-])s2)c1`: the IC50 is 0.4 µM.
Next, `OCC1CCCCN1c1cc(-c2ccccn2)nc(Nc2ccccc2)n1` (centres undefined): 5 µM; `O=C(Nc1nccs1)c1ccccc1Cn1cc([N+](=O)[O-])cn1`: 0.32 µM; `N#Cc1cccc(CN2CCC(c3nc(-c4ccc(C(F)(F)F)nc4)no3)CC2)c1`: > 40 µM (inactive).
On to `COc1ccc(C(C)(C)C)cc1S(=O)(=O)n1ccnc1`, for which the IC50 is 40 µM.
The same measure for `COc1ccccc1C1CC(c2ccc(NS(C)(=O)=O)cc2)=NN1C(=O)c1cccs1` (centres undefined): 16 µM; for `CN(C)c1ccc(N)cc1CN(CC1CCCO1)S(C)(=O)=O` (centres undefined): > 40 µM (inactive).
In the case of `CCCc1cc(N)nc(-c2cc(CCC)cc(N)n2)c1`, the IC50 is 3.2 µM.
In the case of `c1ccc(-c2nc(NC3CCCC3)c3ccccc3n2)nc1`, the IC50 was 6.3 µM.
For the compound `COc1ccc(Nc2nc(NC3CCC(O)CC3)ncc2Br)c(C(N)=O)c1` (centres undefined), the IC50 was 0.1 µM.
Next, `CC(Cn1ccnc1)NC(=O)COc1ccc(Cl)c(Cl)c1` (centres undefined): > 40 µM (inactive).
For the compound `N#Cc1ccccc1S(=O)(=O)N1CCN(C(=O)CNC(=O)c2ccc3c(c2)OCO3)CC1`, the IC50 is > 40 µM (inactive).
`Cc1nccn1C1CCCN(C(=O)c2cc3c(F)cccc3s2)C1` (centres undefined): the IC50 is > 40 µM (inactive).
With `CN1C(=O)c2ccccc2Sc2ccc(NC(=O)NCc3ccco3)cc21`, the IC50 was 0.4 µM.
As to `COc1cccc2sc(CN(C)C(=O)C3CNCCN3c3ccc(F)cc3)c(C)c12` (centres undefined), the half-inhibitory concentration (IC50) is 0.16 µM.
For the compound `NCc1ccc2c(Cl)cc(Cl)c(O)c2n1`, the IC50 is 0.4 µM.
Next, `O=c1cc(NCCCNCc2c[nH]c3ccc(Br)cc23)[nH]c2ccccc12`: 1 µM.
